US9546157B2, “Asymmetric piperidinyl-substituted ureas as medicines” (Helsinn Healthcare SA, priority 2014, dated 2017)

Key:
[1] = Metabolic Stability (H = Human); assay type: in vitro ADME
[2] = Metabolic Stability (M = Mouse); assay type: in vitro ADME
GHSR1a [3] = molecular target: T1, GHSR1a (Homo sapiens, UniProt Q92847); experiment: Calcium FLIPR assay, GHSR-1a antagonism (reduction of ghrelin response); assay type: cell-based; details: HEK293/GHSR1a cells, ghrelin 10 nM
T1 construct: expressed in transfected cells; host or cells: HEK293
T1 sequence (Q92847 whole entry): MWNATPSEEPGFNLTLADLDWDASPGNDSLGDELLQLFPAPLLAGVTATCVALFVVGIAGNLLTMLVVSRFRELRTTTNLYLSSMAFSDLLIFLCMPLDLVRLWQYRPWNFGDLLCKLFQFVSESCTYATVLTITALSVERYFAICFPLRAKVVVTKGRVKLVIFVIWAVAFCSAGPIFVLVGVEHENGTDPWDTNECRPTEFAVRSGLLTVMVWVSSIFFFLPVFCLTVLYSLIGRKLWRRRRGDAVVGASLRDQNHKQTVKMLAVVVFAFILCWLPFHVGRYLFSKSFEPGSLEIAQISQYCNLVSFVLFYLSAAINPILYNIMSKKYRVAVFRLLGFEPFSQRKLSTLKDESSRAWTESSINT
Outline: (§1)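 HEK293/GHSR1a; dye load 30-60 min, RT or 37° C; agonist: cpd at t=20 sec, Ca2+ read 2 min; antagonist: cpd + ghrelin 10 nM at t=20 sec, 2 min read; EC50/IC50 from dose-response fits.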

GHSR1a [4] = molecular target: T1, GHSR1a; experiment: Calcium FLIPR assay, GHSR-1a agonism; assay type: cell-based; design: Emax: unit not given here; details: HEK293/GHSR1a cells
Outline: as §1

Row | SMILES | Metabolic Stability H [1] | Metabolic Stability M [2] | IC50 (GHSR1a [3]) [nM] | EC50 (GHSR1a [4]) [nM] | Emax (GHSR1a [4])
1 | COc1ccc(-c2ccc(C(C)NC(=O)N(C)C3CCN(C)CC3)c(Cl)c2Cl)cc1 (centres unmarked) [Compound H0508, 3-(1-(2,3-dichloro-4′-methoxy-[1,1′-biphenyl]-4-yl)ethyl)-1-methyl-1-(1-methylpiperidin-4-yl)urea] | Medium | High | 76 | > 30000 | 
2 | CC(NC(=O)N(C)C1CCN(C)CC1)c1ccc(-c2cnc3[nH]ccc3c2)c(Cl)c1Cl (centres unmarked) [Compound H0514] | Medium H Medium M | Medium H Medium M | 16 | 38 | 
3 | CC(NC(=O)N(C)C1CCN(C)CC1C)c1ccc(-c2cccnc2)c(Cl)c1Cl (centres unmarked) [Compound H0527, 3-(1-(2,3-dichloro-4-(pyridin-3-yl)phenyl)ethyl)-1-(1,3-dimethylpiperidin-4-yl)-1-methylurea] | Medium H Medium M | Medium H Medium M | 19 | > 30000 | 
4 | CC(NC(=O)N(C)C1CCN(C)CC1C)c1ccc(-c2cn[nH]c2)c(Cl)c1Cl (centres unmarked) [Compound H0528, 3-(1-(2,3-dichloro-4-(1H-pyrazol-4-yl)phenyl)ethyl)-1-(1,3-dimethylpiperidin-4-yl)-1-methylurea] | Medium H Medium M | Medium H Medium M | 34 | > 30000 | 
5 | COC(=O)c1ccc(CN(C(=O)NC(C)c2ccc(-c3cn[nH]c3)c(Cl)c2Cl)C2CCN(C)CC2)cc1 (centres unmarked) [Compound H0537, methyl 4-((3-(1-(2,3-dichloro-4-(1H-pyrazol-4-yl)phenyl)ethyl)-1-(1-methylpiperidin-4-yl)ureido)methyl)benzoate] | Poor H Poor M | Poor H Poor M | 13 | > 30000 | 
6 | CC(NC(=O)N(C)C1CCN(C)CC1)c1ccc(-c2c[nH]cn2)c(Cl)c1Cl (centres unmarked) [Compound H0542, 3-(1-(2,3-dichloro-4-(1H-imidazol-4-yl)phenyl)ethyl)-1-methyl-1-(1-methylpiperidin-4-yl)urea] | High H High M | High H High M | 18 | 15 | 
7 | CC(NC(=O)N(C)C1CCN(C)CC1)c1ccc(-n2ccnn2)c(Cl)c1Cl (centres unmarked) [Compound H0565, 3-(1-(2,3-dichloro-4-(1H-1,2,3-triazol-1-yl)phenyl)ethyl)-1-methyl-1-(1-methylpiperidin-4-yl)urea] | High H High M | High H High M | 28 | 30 | 
8 | CC(NC(=O)N(C)C1CCN(C)CC1)c1ccc(-c2cocn2)c(Cl)c1Cl (centres unmarked) [Compound H0569, 3-(1-(2,3-dichloro-4-(oxazol-4-yl)phenyl)ethyl)-1-methyl-1-(1-methylpiperidin-4-yl)urea] | Medium H Medium M | Medium H Medium M | 87 | > 30000 | 
9 | CC(NC(=O)N(C)C1CCN(C)CC1)c1ccc(-c2ccsc2)c2ccccc12 (centres unmarked) [Compound H0574, 1-methyl-1-(1-methylpiperidin-4-yl)-3-(1-(4-(thiophen-3-yl)naphthalen-1-yl)ethyl)urea] | Medium H Medium M | Medium H Medium M | 67 | 81 | 2489
10 | CC(NC(=O)N(C)C1CCN(C)CC1)c1ccc(-c2cccs2)c2ccccc12 (centres unmarked) [Compound H0575, 1-methyl-1-(1-methylpiperidin-4-yl)-3-(1-(4-(thiophen-2-yl)naphthalen-1-yl)ethyl)urea] | Medium H Medium M | Medium H Medium M | 32 | 28 | 3533
11 | CC(NC(=O)N(C)C1CCN(C)CC1)c1ccc(-c2cccs2)c(Cl)c1F (centres unmarked) [Compound H0582, 3-(1-(34-chloro-2-fluoro-4-(thiophen-2-yl)phenyl)ethyl)-1-methyl-1-(1-methylpiperidin-4-yl)urea] | Medium H Medium M | Medium H Medium M | 15 | 20 | 2069
12 | CN1CCC(N(C)C(=O)NC(COCc2cccc(CO)c2)c2ccc(-c3ccsc3)c(Cl)c2Cl)CC1 (centres unmarked) [Compound H0594, 3-(1-(2,3-dichloro-4-(thiophen-3-yl)phenyl)-2-((3-(hydroxymethyl)benzyl)oxy)ethyl)-1-methyl-1-(1-methylpiperidin-4-yl)urea] | Poor | Medium | 54 | > 30000 | 
13 | CC(NC(=O)N(C)C1CCN(C)CC1)c1ccc(-c2cncs2)c2ccccc12 (centres unmarked) [Compound H0597, 1-methyl-1-(1-methylpiperidin-4-yl)-3-(1-(4-(thiazol-5-yl)naphthalen-1-yl)ethyl)urea] | Poor H Poor M | Poor H Poor M | 24 | > 30000 | 
14 | CC(NC(=O)N(C)C1CCN(C)CC1)c1cnc(C#CC2CC2)c(Cl)c1Cl (centres unmarked) [Compound H0884, 3-(1-(4,5-dichloro-6-(cyclopropylethynyl)pyridin-3-yl)ethyl)-1-methyl-1-(1-methylpiperidin-4-yl)urea] |  |  | 197 | > 30000 | 
15 | CC(NC(=O)N(C)C1CCN(C)CC1)c1ccc(-c2cncc(C(F)(F)F)n2)c(Cl)c1Cl (centres unmarked) [Compound H0910, 3-(1-(2,3-dichloro-4-(6-(trifluoromethyl)pyrazin-2-yl)phenyl)ethyl)-1-methyl-1-(1-methylpiperidin-4-yl)urea] |  |  | 125 | 19 | 1359
16 | COC(=O)C(NC(=O)N(C)C1CCN(C)CC1)c1ccc(-c2cnccn2)c(Cl)c1Cl (centres unmarked) [Compound H0922, methyl 2-(2,3-dichloro-4-(pyrazin-2-yl)phenyl)-2-(3-methyl-3-(1-methylpiperidin-4-yl)ureido)acetate] |  |  | 2800 | > 30000 | 
17 | CN1CCC(N(C)C(=O)NC(CO)c2ccc(-c3cnccn3)c(Cl)c2Cl)CC1 (centres unmarked) [Compound H0924, 3-(1-(2,3-dichloro-4-(pyrazin-2-yl)phenyl)-2-hydroxyethyl)-1-methyl-1-(1-methylpiperidin-4-yl)urea] |  |  | 300 | > 30000 | 

Further molecules by falling IC50 (GHSR1a [3]), results first:

Row | Metabolic Stability H [1] | Metabolic Stability M [2] | IC50 (GHSR1a [3]) [nM] | EC50 (GHSR1a [4]) [nM] | Emax (GHSR1a [4]) | SMILES
18 | High H High M | High H High M | 13 | 22 |  | CC(NC(=O)N(C)C1CCN(C)CC1)c1ccc(-c2cnn(C)c2)c(Cl)c1Cl (centres unmarked) [Compound H0501, 3-(1-(2,3-dichloro-4-(1-methyl-1H-pyrazol-4-yl)phenyl)ethyl)-1-methyl-1-(1-methylpiperidin-4-yl)urea]
19 | Medium | Poor | 12 | > 30000 |  | CC(NC(=O)N(C)C1CCN(C)C1)c1ccc(-c2cn[nH]c2)c(Cl)c1Cl (centres unmarked) [Compound H0529, 3-(1-(2,3-dichloro-4-(1H-pyrazol-4-yl)phenyl)ethyl)-1-methyl-1-(1-methylpyrrolidin-3-yl)urea]
20 | Medium H Medium M | Medium H Medium M | 11 | 126 |  | CC(NC(=O)N(C)C1CCN(C)CC1)c1ccc(-c2cccc(N)c2)c2ccccc12 (centres unmarked) [Compound H0591, 3-(1-(4-(3-aminophenyl)naphthalen-1-yl)ethyl)-1-methyl-1-(1-methylpiperidin-4-yl)urea]
21 | High H High M | High H High M | 9 | 4 |  | CC(NC(=O)N(C)C1CCN(C)CC1)c1ccc(-c2cscn2)c(Cl)c1Cl (centres unmarked) [Compound H0568, 3-(1-(2,3-dichloro-4-(thiazol-4-yl)phenyl)ethyl)-1-methyl-1-(1-methylpiperidin-4-yl)urea]
22 | High H High M | High H High M | 8 | 12 |  | CC(NC(=O)N(C)C1CCN(C)CC1)c1ccc(-c2ccoc2)c(Cl)c1Cl (centres unmarked) [Compound H0507, 3-(1-(2,3-dichloro-4-(furan-3-yl)phenyl)ethyl)-1-methyl-1-(1-methylpiperidin-4-yl)urea]
23 | Medium H Medium M | Medium H Medium M | 8 | > 30000 |  | CC(NC(=O)N(Cc1ccc(CO)cc1)C1CCN(C)CC1)c1ccc(-c2cccnc2)c(Cl)c1Cl (centres unmarked) [Compound H0546, 3-(1-(2,3-dichloro-4-(pyridin-3-yl)phenyl)ethyl)-1-(4-(hydroxymethyl)benzyl)-1-(1-methylpiperidin-4-yl)urea]
24 |  |  | 7 | > 30000 |  | CCC(NC(=O)N(CC)C1CCN(C)CC1)c1ccc(-c2cnccn2)c(Cl)c1Cl (centres unmarked) [Compound H0896, 3-(1-(2,3-dichloro-4-(pyrazin-2-yl)phenyl)propyl)-1-ethyl-1-(1-methylpiperidin-4-yl)urea]
25 | Medium | Poor | 4 | 5 |  | CC(NC(=O)N(C)C1CCN(C)C1)c1ccc(-c2ccsc2)c(Cl)c1Cl (centres unmarked) [Compound H0531, 3-(1-(2,3-dichloro-4-(thiophen-3-yl)phenyl)ethyl)-1-methyl-1-(1-methylpyrrolidin-3-yl)urea]
26 | Medium H Medium M | Medium H Medium M | 3 | 6 |  | CC(NC(=O)N(C)C1CCN(C)CC1)c1ccc(I)c(Cl)c1Cl (centres unmarked) [Compound H0519, 3-(1-(2,3-dichloro-4-iodophenyl)ethyl)-1-methyl-1-(1-methylpiperidin-4-yl)urea]
